Measurements from article PMC3760172 (Bioorganic & medicinal chemistry, 2013).

Target: rat nNOS (Rattus norvegicus, UniProt P29476)
Test: NOS inhibition assay
Format: biochemical
Conditions: compared with inhibitor 27

decrease in potency (nNOS) relative to 27: 54 fold
SMILES: Cc1cc(N)nc(COc2cccc(NCCc3cccc(F)c3)c2)c1 [Compound 24]
